Laboratory results from PubChem BioAssay (NCI).
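These data come from cells grown in 96-well plates and exposed to compound for 48 hours at five concentrations. TGI: concentration producing complete growth inhibition.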

Key:
Assay in all cases: NCI tumour cell line growth inhibition, 48 h
HT29 colon = system: HT29 colon
KM20L2 colon = system: KM20L2 colon
HL-60(TB) leukemia = system: HL-60(TB) leukemia
DMS 273 small cell lung = system: DMS 273 small cell lung
SF-539 CNS = system: SF-539 CNS
MALME-3M melanoma = system: MALME-3M melanoma
HOP-62 NSCLC = system: HOP-62 NSCLC
A549 NSCLC = system: A549 NSCLC
NCI-H23 lung = system: NCI-H23 lung
HCC-2998 colon = system: HCC-2998 colon
NCI-H460 lung = system: NCI-H460 lung
SR leukemia = system: SR leukemia
EKVX NSCLC = system: EKVX NSCLC
UO-31 renal = system: UO-31 renal
M14 melanoma = system: M14 melanoma
CCRF-CEM leukemia = system: CCRF-CEM leukemia
SF-268 CNS = system: SF-268 CNS
786-0 renal = system: 786-0 renal
SK-MEL-28 melanoma = system: SK-MEL-28 melanoma
UACC-62 melanoma = system: UACC-62 melanoma
SF-295 CNS = system: SF-295 CNS
HOP-92 NSCLC = system: HOP-92 NSCLC
MOLT-4 leukemia = system: MOLT-4 leukemia
SNB-78 CNS = system: SNB-78 CNS
SK-MEL-5 melanoma = system: SK-MEL-5 melanoma
ACHN renal = system: ACHN renal
CAKI-1 renal = system: CAKI-1 renal
RXF 393 renal = system: RXF 393 renal
HCT-15 colon = system: HCT-15 colon
HCT-116 colon = system: HCT-116 colon
SNB-75 CNS = system: SNB-75 CNS
SK-OV-3 ovarian = system: SK-OV-3 ovarian
SN12C renal = system: SN12C renal
HOP-18 NSCLC = system: HOP-18 NSCLC
U251 CNS = system: U251 CNS
LOX IMVI melanoma = system: LOX IMVI melanoma
RPMI-8226 leukemia = system: RPMI-8226 leukemia
DMS 114 small cell lung = system: DMS 114 small cell lung
UACC-257 melanoma = system: UACC-257 melanoma
TK-10 renal = system: TK-10 renal
OVCAR-3 ovarian = system: OVCAR-3 ovarian
SW-620 colon = system: SW-620 colon
K-562 leukemia = system: K-562 leukemia
COLO 205 colon = system: COLO 205 colon
NCI-H522 lung = system: NCI-H522 lung
IGROV1 ovarian = system: IGROV1 ovarian
SK-MEL-2 melanoma = system: SK-MEL-2 melanoma
KM12 colon = system: KM12 colon
A498 renal = system: A498 renal
NCI-H226 lung = system: NCI-H226 lung
OVCAR-8 ovarian = system: OVCAR-8 ovarian
OVCAR-5 ovarian = system: OVCAR-5 ovarian
M19-MEL melanoma = system: M19-MEL melanoma
LXFL 529 NSCLC = system: LXFL 529 NSCLC
SNB-19 CNS = system: SNB-19 CNS
DLD-1 colon = system: DLD-1 colon
XF 498 CNS = system: XF 498 CNS

`O=C(Nc1nccs1)c1cc(C2=CC=CC([N+](=O)[O-])C=C2)nc(=S)[nH]1` (configuration not stated) was tested, and the TGI (HT29 colon) was greater than 100 µM, the TGI (KM20L2 colon) was greater than 100 µM and the TGI (HL-60(TB) leukemia) was greater than 100 µM. The TGI (DMS 273 small cell lung) was greater than 100 µM, the TGI (SF-539 CNS) was greater than 100 µM and the TGI (MALME-3M melanoma) was greater than 100 µM. The TGI (HOP-62 NSCLC) was greater than 100 µM, the TGI (A549 NSCLC) was greater than 100 µM and the TGI (NCI-H23 lung) was greater than 100 µM. It also gave a TGI (HCC-2998 colon) greater than 100 µM, a TGI (NCI-H460 lung) greater than 100 µM and a TGI (SR leukemia) greater than 100 µM. The TGI (EKVX NSCLC) was greater than 100 µM, the TGI (UO-31 renal) was greater than 100 µM and the TGI (M14 melanoma) was greater than 100 µM. For the same molecule, the TGI (CCRF-CEM leukemia) was greater than 100 µM, the TGI (SF-268 CNS) was greater than 100 µM and the TGI (786-0 renal) was greater than 100 µM. For the same molecule, the TGI (SK-MEL-28 melanoma) was greater than 100 µM, the TGI (UACC-62 melanoma) was greater than 100 µM and the TGI (SF-295 CNS) was greater than 100 µM. The TGI (HOP-92 NSCLC) was greater than 100 µM, the TGI (MOLT-4 leukemia) was greater than 100 µM and the TGI (SNB-78 CNS) was greater than 100 µM. For the same molecule, the TGI (SK-MEL-5 melanoma) was greater than 100 µM, the TGI (ACHN renal) was greater than 100 µM and the TGI (CAKI-1 renal) was greater than 100 µM. It also gave a TGI (RXF 393 renal) greater than 100 µM, a TGI (HCT-15 colon) greater than 100 µM and a TGI (HCT-116 colon) greater than 100 µM. For the same molecule, the TGI (SNB-75 CNS) was greater than 100 µM, the TGI (SK-OV-3 ovarian) was greater than 100 µM and the TGI (SN12C renal) was greater than 100 µM. For the same molecule, the TGI (HOP-18 NSCLC) was greater than 100 µM, the TGI (U251 CNS) was greater than 100 µM and the TGI (LOX IMVI melanoma) was greater than 100 µM. The TGI (RPMI-8226 leukemia) was greater than 100 µM, the TGI (DMS 114 small cell lung) was greater than 100 µM and the TGI (UACC-257 melanoma) was greater than 100 µM. It also gave a TGI (TK-10 renal) greater than 100 µM, a TGI (OVCAR-3 ovarian) greater than 100 µM and a TGI (SW-620 colon) greater than 100 µM. It also gave a TGI (K-562 leukemia) greater than 100 µM, a TGI (COLO 205 colon) greater than 100 µM and a TGI (NCI-H522 lung) greater than 100 µM. The TGI (IGROV1 ovarian) was greater than 100 µM, the TGI (SK-MEL-2 melanoma) was greater than 100 µM and the TGI (KM12 colon) was greater than 100 µM. The TGI (A498 renal) was greater than 100 µM, the TGI (NCI-H226 lung) was greater than 100 µM and the TGI (OVCAR-8 ovarian) was greater than 100 µM. The TGI (OVCAR-5 ovarian) was greater than 100 µM, the TGI (M19-MEL melanoma) was greater than 100 µM and the TGI (LXFL 529 NSCLC) was greater than 100 µM. For the same molecule, the TGI (SNB-19 CNS) was greater than 100 µM.

`CC1=CC[C@H](C)C(C)(C)C1/C=C/C(C)=C/CC[C@@]1(CO)[C@H](CCCO)/C(=C(/C)C=O)CC[C@]1(C)O` (some centres not stated) showed a TGI (HT29 colon) of 12.1 µM, a TGI (KM20L2 colon) of 8.23 µM and a TGI (DLD-1 colon) of 15.1 µM. For the same molecule, the TGI (HL-60(TB) leukemia) was 7.79 µM, the TGI (DMS 273 small cell lung) was 13.9 µM and the TGI (SF-539 CNS) was 20.8 µM. It also gave a TGI (MALME-3M melanoma) of 16.9 µM, a TGI (A549 NSCLC) of 6.21 µM and a TGI (NCI-H23 lung) of 23 µM. It also gave a TGI (HCC-2998 colon) of 4.41 µM, a TGI (NCI-H460 lung) of 13.5 µM and a TGI (SR leukemia) of 24.3 µM. The TGI (EKVX NSCLC) was 4.48 µM, the TGI (XF 498 CNS) was 19.9 µM and the TGI (UO-31 renal) was 21.2 µM. The TGI (M14 melanoma) was 12.3 µM, the TGI (CCRF-CEM leukemia) was 24.9 µM and the TGI (SF-268 CNS) was 25.1 µM. It also gave a TGI (SK-MEL-28 melanoma) of 23.7 µM, a TGI (SF-295 CNS) of 13.9 µM and a TGI (MOLT-4 leukemia) of 20.5 µM. The TGI (SNB-78 CNS) was 27.5 µM, the TGI (SK-MEL-5 melanoma) was 4.26 µM and the TGI (ACHN renal) was 16.6 µM. For the same molecule, the TGI (CAKI-1 renal) was 10.5 µM, the TGI (RXF 393 renal) was 28.1 µM and the TGI (HCT-15 colon) was 20.4 µM. The TGI (SK-OV-3 ovarian) was 39.9 µM, the TGI (SN12C renal) was 19.1 µM and the TGI (HOP-18 NSCLC) was 28.9 µM. For the same molecule, the TGI (U251 CNS) was 12.9 µM, the TGI (LOX IMVI melanoma) was 15.7 µM and the TGI (UACC-257 melanoma) was 28.8 µM. It also gave a TGI (TK-10 renal) of 15.3 µM, a TGI (SW-620 colon) of 12.5 µM and a TGI (K-562 leukemia) of 11.8 µM. It also gave a TGI (COLO 205 colon) of 3.51 µM, a TGI (NCI-H522 lung) of 11.3 µM and a TGI (IGROV1 ovarian) of 24.7 µM. It also gave a TGI (SK-MEL-2 melanoma) of 29.5 µM, a TGI (KM12 colon) of 9.63 µM and a TGI (NCI-H226 lung) of 14.4 µM. For the same molecule, the TGI (OVCAR-8 ovarian) was 32.9 µM, the TGI (OVCAR-5 ovarian) was 38.2 µM and the TGI (M19-MEL melanoma) was 53.3 µM. It also gave a TGI (LXFL 529 NSCLC) of 20.2 µM and a TGI (SNB-19 CNS) of 21.4 µM.
